In general, melting point refers to the temperature, or range, at which the solid turns liquid.

`COc1cc(OC)c(C(=O)O)c(OCc2ccc(OCc3nc(-c4ccccc4)oc3C)cc2)c1` [Compd 21-2, 2,4-Dimethoxy-6-[4-(5-methyl-2-phenyl-oxazol-4-ylmethoxy)-benzyloxy]-benzoic acid]: the melting point fell in the range of 182 to 183 °C.
In turn, `CCCOc1cc(C)c(C(=O)O)c(OCc2ccc(OCc3nc(-c4ccccc4)oc3C)cc2)c1` [Compd 21-3, 2-Methyl-6-[4-(5-methyl-2-phenyl-oxazol-4-ylmethoxy)-benzyloxy]-4-propoxy-benzoic acid] came in with a melting point of 182 to 183 °C.
Turning to `Cc1oc(-c2ccccc2)nc1CCOc1ccc(COc2cc(C(F)(F)F)cc(C(F)(F)F)c2C(=O)O)cc1` [Compd 21-4, 2-{4-[2-(5-Methyl-2-phenyl-oxazol-4-yl)-ethoxy]-benzyloxy}-4,6-bis-trifluoromethyl-benzoic acid], the melting point was 162 to 163 °C.
To `Cc1oc(-c2ccccc2)nc1COc1ccc(COc2cc(C(F)(F)F)cc(C(F)(F)F)c2C(=O)O)cc1` [Compd 21-5, 2-[4-(5-Methyl-2-phenyl-oxazol-4-ylmethoxy)-benzyloxy]-4,6-bis-trifluoromethyl-benzoic acid] belongs 190 to 191 °C; to `Cc1oc(-c2ccccc2)nc1COc1ccc(COc2cccc(F)c2C(=O)O)cc1` [Compd 21-6, 2-Fluoro-6-[4-(5-methyl-2-phenyl-oxazol-4-ylmethoxy)-benzyloxy]-benzoic acid], 167 to 168 °C; to `Cc1cc(OC(C)C)cc(OCc2ccc(OCCc3nc(-c4ccccc4)oc3C)cc2)c1C(=O)O` [Compd 21-7, 4-Isopropoxy-2-methyl-6-{4-[2-(5-methyl-2-phenyl-oxazol-4-yl)-ethoxy]-benzyloxy}-benzoic acid], 157 to 158 °C.
`Cc1oc(-c2ccccc2)nc1CCOc1ccc(COc2cccc(F)c2C(=O)O)cc1` [Compd 21-8, 2-Fluoro-6-{4-[2-(5-methyl-2-phenyl-oxazol-4-yl)-ethoxy]-benzyloxy}-benzoic acid] displayed a melting point of 142 to 143 °C.
To `COc1cccc(OCc2ccc(OCc3nc(-c4ccccc4)oc3C)cc2)c1C(=O)O` [Compd 21-9, 2-Methoxy-6-[4-(5-methyl-2-phenyl-oxazol-4-ylmethoxy)-benzyloxy]-benzoic acid] belongs 180 to 181 °C; to `COc1cccc(OCc2ccc(OCCc3nc(-c4ccccc4)oc3C)cc2)c1C(=O)O` [Compd 21-10, 2-Methoxy-6-{4-[2-(5-methyl-2-phenyl-oxazolyl)-ethoxy]-benzyloxy}-benzoic acid], 183 to 184 °C.
The same measure for `Cc1oc(-c2ccccc2)nc1COc1ccc(COc2cc(Cl)ccc2C(=O)O)cc1` [Compd 21-11, 4-Chloro-2-[4-(5-methyl-2-phenyl-oxazol-4-ylmethoxy)-benzyloxy]-benzoic acid]: 155 to 156 °C; for `Cc1oc(-c2ccccc2)nc1CCOc1ccc(COc2cc(Cl)ccc2C(=O)O)cc1` [Compd 21-12, 4-Chloro-2-{4-[2-(5-methyl-2-phenyl-oxazol-4-yl)-ethoxy]-benzyloxy}benzoic acid]: 148 to 149 °C.
The same measure for `Cc1oc(-c2ccccc2)nc1COCc1ccc(COc2cc(Cl)ccc2C(=O)O)cc1` [Compd 21-19, 4-Chloro-2-[4-(5-methyl-2-phenyl-oxazol-4-ylmethoxymethyl)-benzyloxy]-benzoic acid]: 151 °C.
Molecule `Cc1oc(-c2ccccc2)nc1CCOc1ccc(S(=O)(=O)Nc2cc(Cl)ccc2C(=O)O)cc1` [Example 2, 4-Chloro-2-{4-[2-(5-methyl-2-phenyl-oxazol-4-yl)-ethoxy]-benzenesulfonylamino}-benzoic acid] came in with a melting point of 223 to 225 °C.
To `Cc1oc(-c2ccccc2)nc1CSc1ccc(S(=O)(=O)Nc2ccccc2C(=O)O)cc1` [Example 3, 2-[4-(5-Methyl-2-phenyl-oxazol-4-ylmethylsulfanyl)-benzenesulfonylamino]-benzoic acid] belongs 182 to 184 °C; to `O=C(NCCc1ccc(F)cc1)c1ccc(S(=O)(=O)Nc2ccccc2C(=O)O)cc1` [Example 7, 2-{4-[2-(4-Fluoro-phenyl)-ethylcarbamoyl]-benzenesulfonylamino}-benzoic acid], 85 to 86 °C; to `CCOc1ccc(CC(=O)Nc2ccc(S(=O)(=O)Nc3ccccc3C(=O)O)cc2)cc1` [Example 9, 2-{4-[2-(4-Ethoxy-phenyl)-acetylamino]-benzenesulfonylamino}-benzoic acid], 241 to 242 °C.
To `COc1ccc(C(=O)O)c(OCc2ccc(OCCc3nc(-c4ccccc4)oc3C)cc2)c1` [Example 11, 4-Methoxy-2-{4-[2-(5-methyl-2-phenyl-oxazol-4-yl)-ethoxy]-benzyloxy}-benzoic acid] belongs 113 to 115 °C; to `Cc1oc(-c2ccccc2)nc1CCOc1ccc(COc2cc3ccccc3cc2C(=O)O)cc1` [Example 14, 3-{4-[2-(5-Methyl-2-phenyl-oxazol-4-yl)-ethoxy]-benzyloxy}-naphthalene-2-carboxylic acid], 135 to 137 °C; to `CCCOc1ccc(C(=O)O)c(OCc2ccc(OCCc3nc(-c4ccccc4)oc3C)cc2)c1` [Example 15, 2-{4-[2-(5-Methyl-2-phenyl-oxazol-4-yl)-ethoxy]-benzyloxy}-4-propoxy-benzoic acid], 108 to 109 °C.
The same measure for `Cc1oc(-c2ccccc2)nc1COc1cccc(COc2cc(Cl)ccc2C(=O)O)c1` [Example 17, 4-Chloro-2-[3-(5-methyl-2-phenyl-oxazol-4-ylmethoxy)-benzyloxy]-benzoic acid]: 168 °C.
`Cc1oc(-c2ccccc2)nc1COCc1cccc(COc2cc(Cl)ccc2C(=O)O)c1` [Example 18, 4-Chloro-2-[3-(5-methyl-2-phenyl-oxazol-4-ylmethoxymethyl)-benzyloxy]-benzoic acid] showed a melting point of 137 °C.

The values are drawn from patent US7700637B2, “Organic compounds” (Novartis AG, priority 2003, dated 2010).
